Results reported in patent US20140349941A1, “AROMATIC-CATIONIC PEPTIDES AND USES OF SAME” (Cornell University, priority 2011, published 2014).
“Also recorded” adds a separate entry of the source.

What was measured:
[1] = Antioxidant ability: neutralizing reactive species, lipid peroxidation; type: biochemical
[2] = Animal models of ischemia-reperfusion injury, neurodegenerative diseases and metabolic syndrome; type: in vivo; conditions: neurodegenerative diseases, metabolic syndrome
[3] = test system: cytochrome c; assay: Fluorescence quenching of peptide by cytochrome c; type: binding
Description: (§1) Maximal fluorescence emission of SS-19 was monitored at 420 nm following excitation at 320 nm using Hitachi F-4500 fluorescence spectrophotometer.
(§2) The quenching by cytochrome c was not displaced by sequential additions of bovine serum albumin (FIG. 22C, A+arrows) (500 μg/ml).
Fluorescence emission of SS-19 (10 μM) was monitored in real time (Ex/Em=320 nm/420 nm) using Hitachi F-4500 fluorescence spectrophotometer.

[4] = test system: isolated rat renal kidney mitochondria; assay: Fluorescence quenching of peptide by mitochondria or mitoplasts; type: binding
Description: as §1, §2

[5] = Fluorescence spectroscopy of peptide interaction with cardiolipin; type: binding; conditions: peptide 1 μM, CL 5-50 μg/ml
Source text: The peptides Dmt-D-Arg-(atn)Dap-Lys-NH2 (SS-19) and Dmt-D-Arg-Phe-Lys-Ald-NH2 (SS-37)cationic peptides carry net positive charge at neutral pH. They are expected to associate with anionic phospholipid cardiolipin based on electrostatic interaction. The interaction of small peptides with lipid membranes can been studied using fluorescence spectroscopy (Surewicz and Epand, 1984). […] Polarity-sensitive fluorescent probes were incorporated into the peptides and fluorescence spectroscopy was used to determine if SS-19, SS-37 and SS-36 interact with CL.
The peptide Dmt-D-Arg-Phe-(atn)Dap-NH2 (SS-19) contains anthraniloyl incorporated into diaminopropionic acid. Anthraniloyl derivatives fluoresce in the 410-420 nm range when excited at 320-330 nm (Hiratsuka T, 1983). The quantum yield of anthraniloyl derivatives is strongly dependent on the local environment, and can increase 5-fold going from water to 80% ethanol, together with a blue shift in the emission maxima (λ max) of <10 nm (Hiratsuka T, 1983). Fluorescence emission spectrum of SS-19 (1 μM) alone, and in the presence of increasing concentrations of CL (5 to 50 μg/ml), was monitored following excitation at 320 nm using Hitachi F-4500 fluorescence spectrophotometer.
The peptide Dmt-D-Arg-Phe-Lys-Ald-NH2 (SS-37) contains an additional amino acid, aladan (Ald), which has been reported to be particularly sensitive to the polarity of its environment and it has been used to probe the electrostatic character of proteins (Cohen et al., 2002). When excited at 350 nm, λmax shifts from 542 nm in water to 409 nm in heptane, accompanied by a significant increase in quantal yield (Cohen et al., 2001). Fluorescence emission spectrum of SS-37 (1 μM) alone, and in the presence of increasing concentrations of CL, was monitored following excitation at 350 nm. Addition of CL (5 to 50 μg/ml) led to a 3-fold increase in quantal yield of SS-37 as well as a clear blue shift in λmax, from 525 nm without CL to 500 nm with 50 μg/ml CL (FIG. 21B).
The peptide Dmt-D-Arg-Ald-Lys-NH2 (SS-36) contains Ald in place Phe^3. Fluorescence emission spectrum of SS-36 (1 μM) alone, and in the presence of increasing concentrations of CL, was monitored following excitation at 350 nm. SS-36 was the most sensitive to the addition of CL, with dramatic increase in quantal yield and blue shift observed with much lower added amounts of CL (1.25 to 5 μg/ml). The λmax shifted from 525 nm without CL to 500 nm with as little as 1.25 μg/ml CL, and quantal yield increased by more than 100-fold with the addition of 5 μg/ml of CL (FIG. 21C).

[6] = biological target: T1, cytochrome c-CL complex (Homo sapiens, UniProt P99999); assay: Cytochrome c/CL peroxidase activity (amplex red); type: biochemical; conditions: figure legend FIG. 29A-C; comparison at a fixed concentration of 10 μM (FIG. 29C)
T1 sequence (P99999 2-105 limits assumed, species assumed, one chain of several): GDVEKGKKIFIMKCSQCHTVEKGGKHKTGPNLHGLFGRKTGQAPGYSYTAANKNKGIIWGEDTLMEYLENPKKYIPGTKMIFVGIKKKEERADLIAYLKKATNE
Source text: The six coordination of the heme in cytochrome c prevents direct interaction of H2O2 with the catalytic metal site, and native cytochrome c in solution is a poor peroxidase. Upon interaction with CL, cytochrome c undergoes a structural change with rupture of the Fe-Met80 coordination. […] The mechanism of action of cytochrome c peroxidase is similar to that of other peroxidases, such as horse radish peroxidase (HRP). Thus it is possible to use the amplex red-HRP reaction to investigate cytochrome c peroxidase activity. In the presence of peroxidase, amplex red (AR) reacts with H2O2 to form the red-fluorescent oxidation product, resorufin (Ex/Em=571/585).
Cytochrome c (2 μM) was mixed with CL (25 μg/ml) and 10 μM H2O2 in 20 mM HEPES, pH 7.4. Amplex red (50 μM) was then added and fluorescence emission monitored in real time using Hitachi F4500 fluorescence spectrophotometer. Addition of amplex red elicited rapid increase in fluorescence signal due to resorufin formation, providing direct evidence for peroxidase activity of cytochrome c/CL complex (FIG. 29A).

[7] = biological target: heme environment of cytochrome c (with CL) (Homo sapiens, UniProt P99999); assay: Soret CD spectrum of cyt C in the presence of CL; type: binding; conditions: cyt C 10 μM; CL 30 μg/ml; peptide 10 μM; 20 mM HEPES pH 7.5, 25° C.; FIG. 24
Sequence of heme environment of cytochrome c (with CL) (P99999 2-105 limits assumed, species assumed): as the sequence (P99999 2-105 limits assumed, species assumed, one chain of several) above
Description: Circular dichroism (CD) was carried out to examine the effects of the peptides on protecting the heme environment of cyt C from the acyl chain of CL. For heme proteins, the Soret CD spectrum is strictly correlated with the heme pocket conformation. In particular, the negative 416-420 nm Cotton effect is considered diagnostic of Fe(III)-Met80 coordination in native cyt C (Santucci and Ascoli, 1997). […] CD spectra were obtained using AVIV CD Spectrometer Model 410.
Changes in the Soret CD spectrum of cyt C (10 μM) were recorded in the absence (dotted line) and presence (dashed line) of 30 μg/ml CL, plus addition of different peptides (10 μM) (solid line) (FIG. 24). CD measurements were carried out using 20 mM HEPES, pH 7.5, at 25° C. and expressed as molar ellipticity (θ) (m Deg).

[8] = biological target: T1, cytochrome c-CL complex; assay: Fluorescence spectroscopy of peptide with cytochrome c in the presence of CL; type: binding; conditions: peptide 10 μM, CL 50 μg/ml
Description: Fluorescence emission of SS-19 (10 μM) was monitored in real time (Ex/Em=320 nm/420 nm) using Hitachi F-4500 fluorescence spectrophotometer. […] CL may potentiate the interaction between SS-19 and cytochrome c by serving as an anionic platform for the two cationic molecules.
The quenching by cytochrome c was not displaced by sequential additions of bovine serum albumin (500 μg/ml) (FIG. 23C, A+arrows).
SS-36 also contains the polarity-sensitive fluorescent amino acid aladan.

| Substance | lipid peroxidation [1] | neutralizing reactive species [1] | efficacy in animal models [2] | displacement of cytochrome c quenching by bovine serum albumin ([3]; BSA 500 μg/ml, FIG. 22C) | dependence of interaction on amount of cytochrome c ([3]; FIG. 22D) | peptide fluorescence on addition of cytochrome c ([3]; peptide 10 μM, 2 μM cytochrome c, no CL) | quenching of peptide fluorescence by cytochrome c-depleted mitoplasts ([4]; mitoplasts 0.4 mg, FIG. 22B) | peptide fluorescence on addition of mitochondria ([4]; peptide 10 μM, sequential addition of 0.2 mg mitochondria, FIG. 22A) | increase in quantal yield of peptide fluorescence [5] [fold] | shift in λmax on addition of CL ([5]; excitation 320 nm) | peroxidase activity in cytochrome c/CL complex [6] | disappearance of the negative Cotton effect caused by CL (heme environment of cytochrome c) [7] | peptide fluorescence on addition of cytochrome c in the presence of CL ([8]; 2 μM cytochrome c) | peptide fluorescence on addition of CL ([8]; FIG. 23B) |
| --- | --- | --- | --- | --- | --- | --- | --- | --- | --- | --- | --- | --- | --- | --- |
| D-Arg-2′6′-Dmt-Tyr-Lys-Phe-NH2 | inhibit lipid peroxidation | can neutralize H2O2, hydroxyl radical, and peroxynitrite | remarkable efficacy |  |  |  |  |  |  |  |  |  |  |  |
| Dmt-D-Arg-Phe-(atn)Dap-NH2 [SS-19] |  |  |  | not displaced | linearly dependent on the amount of cytochrome c added | similarly quenched; also recorded: immediate quenching of the fluorescence signal | significantly reduced | quenched | 2 | no significant shift in λmax | preventing peroxidase activity in cytochrome c/CL complex | Protect the Heme Environment of Cytochrome C from the Acyl Chain of CL | larger extent of quenching of SS-19 fluorescence | increase in SS-19 fluorescence |
